Data as given in EPA's ToxValDB 9.5.
Values joined by “and” are separate entries in the source; they are usually repeats but may differ in a detail not shown here. Equal entries are not always repeated.

Tests used:
[1] = test system: Rattus norvegicus; conditions: oral
[2] = test system: Rattus norvegicus; conditions: for LOAEL / NOAEL: gavage
[3] = test system: Rattus norvegicus; conditions: oral; remark: listed apart in the source
[4] = test system: Rattus norvegicus; conditions: oral; remark: listed apart in the source
[5] = test system: Rattus norvegicus; conditions: oral; for LEL: uterotrophic, Active
[6] = test system: Rattus norvegicus; conditions: oral; remark: listed apart in the source
[7] = test system: Mus musculus; conditions: acute; oral
[8] = test system: Oryctolagus sp.
[9] = test system: Rattus norvegicus; conditions: repeat dose other; oral
[10] = test system: Rattus norvegicus; conditions: short-term; duration: 20 days; oral; diet; F; musculoskeletal
[11] = test system: Mus musculus; conditions: repeat dose other; oral
[12] = test system: Mus musculus; conditions: oral, drinking water
[13] = test system: Rattus norvegicus; conditions: subchronic; duration: 13 weeks; oral; gavage; M/F; Fischer 344; Histopathology: Lung-Pulmonary vasculitis Kidney-Cytomegaly/Karyomegaly, Renal tubular epithelial cell in the inner cortex
[14] = test system: Mus musculus; conditions: oral, drinking water, B6C3F1, immunological
[15] = reproduction developmental, duration: 43 days, oral, F, Sprague-Dawley
[16] = reproduction developmental, duration: 43 days, oral, M, Sprague-Dawley
[17] = reproduction developmental, duration: 43 days, oral, Sprague-Dawley, generation: F1
[18] = reproduction developmental, M/F, degenerative cardiomyopathy
[19] = subchronic, duration: 90 days, diet, M/F, reduced hemoglobin concentration, lowered hematocrits, altered organ weight
[20] = subchronic, duration: 90 days, diet, M/F, reduced weight gain, food consumption increased relative liver weight
[21] = duration: 2 years, feed, M/F, Crl:CD(SD), reduced weight gain
[22] = short-term, duration: 20 days, M/F, rachitic bone

BrCBr [Dibromomethane]
NOAEL ([1]; short-term, duration: 28 days, drinking water, M/F, Sprague-Dawley, Hematologic): 8.6 mg/kg-day | LOAEL [2, 15]: 500 mg/kg-day | NOAEL [2, 15]: 150 mg/kg-day | LOAEL [2, 16]: 150 mg/kg-day | NOAEL [2, 16]: 50 mg/kg-day | LOAEL [2, 17]: 500 mg/kg-day | NOAEL [2, 17]: 150 mg/kg-day

O=S(=O)(c1ccccc1)c1ccccc1 [Diphenylsulfone]
NOAEL ([1]; subchronic, duration: 13 weeks, diet, M): 8 mg/kg-day

CCCN(CCC)C(=O)SCC [EPTC]
LEL [3, 18]: 10 mg/kg-day | NOEL [3, 18]: 2.5 mg/kg-day | NOEL ([4]; reproduction developmental, diet, Heart: Degenerative cardiomyopathy): 2.5 mg/kg-day | NOEL ([5]; Hershberger, duration: 10 days, gavage, Sprague-Dawley, anti-androgenic + no effect on PPS, AST or thyroid / decreasing trend significant for LABC): 125 mg/kg-day

Oc1c(Cl)cc(Cl)c2cccnc12.Oc1c(Cl)ccc2cccnc12.Oc1ccc(Cl)c2cccnc12 [Halquinols]
NOAEL ([6]; chronic, duration: 1 years, Histopathological changes in the kidney): 15 mg/kg-day

O=C(O)CCCCC(=O)O [Hexanedioic acid]
NOAEL ([1]; chronic, duration: 2 years, diet, M/F, albino, Whole Body Effects): 470 mg/kg-day | LD50 [7]: 1900 mg/kg | LD50 ([8]; acute, dermal, occlusive, New Zealand): > 7940 mg/kg | NOAEL ([8]; developmental, duration: 13 days, oral, gavage, Dutch-belted): > 250 mg/kg-day | LC50 ([2]; acute, Inhalation, Sprague-Dawley): > 7.7 µg/mL | LD50 ([2]; acute, oral, Sprague-Dawley): 5050 mg/kg | NOAEL ([2]; developmental, duration: 10 days, oral, Wistar): > 288 mg/kg-day

CCCN(CCC)c1c([N+](=O)[O-])cc(C(C)C)cc1[N+](=O)[O-] [Isopropalin]
LEL [3, 19]: 72 mg/kg-day | NOEL [3, 19]: 15 mg/kg-day | NOEL ([4]; subchronic, duration: 90 days, diet, Blood: Hematological effects + Organs, unspecified: Altered weights): 15 mg/kg-day

C=C(C)C(=O)OC [Methyl methacrylate]
NOAEL ([3]; chronic, drinking water, M/F, no effects): 136 mg/kg-day | NOEL ([4]; chronic, duration: 24 months, drinking water, Kidney: Increased relative weight): 7.5 mg/kg-day

CNc1ccccc1 [N-Methylaniline]
NOAEL ([1]; short-term, duration: 28 days, gavage, M/F, CD, Hematologic, Immune): 5 mg/kg-day

CCCN(CC1CC1)c1c([N+](=O)[O-])cc(C(F)(F)F)cc1[N+](=O)[O-] [Profluralin]
NOEL ([4]; subchronic, diet, None Observed): 3 mg/kg-day

CC(C)N(C(=O)CCl)c1ccccc1 [Propachlor]
LEL [3, 20]: 133 mg/kg-day | NOEL [3, 20]: 13.3 mg/kg-day | NOEL ([4]; subchronic, duration: 90 days, diet, Whole body: Decreased weight gain): 13.3 mg/kg-day

N#CCC#N [Propanedinitrile]
NOAEL ([1]; subchronic, duration: 90 days, gavage, M/F, Crl:CD(SD) BR, hepatic): 0.4 mg/kg-day

[Na+].[O]=[V](=[O])[O-] [Sodium metavanadate]
NOAEL ([4]; subchronic, duration: 3 months, drinking water, Kidney: Impaired function): 1.52 mg/kg-day | LOAEL [9]: 2.1 mg/kg-day | NOAEL [9]: 0.21 mg/kg-day

CN[C@@H]1[C@H](O[C@H]2[C@H](O[C@H]3[C@H](O)[C@@H](O)[C@H](N=C(N)N)[C@@H](O)[C@@H]3N=C(N)N)O[C@@H](C)[C@]2(O)C=O)O[C@@H](CO)[C@H](O)[C@H]1O [Streptomycin A]
LOEL [6, 21]: 10 mg/kg-day | NOEL [6, 21]: 5 mg/kg-day

[Cl-].[Cl-].[Sr+2] [Strontium chloride]
NOAEL [9]: 263 mg/kg-day

[Sr] [Strontium]
LOAEL [3, 22]: 380 mg/kg-day | NOAEL [3, 22]: 190 mg/kg-day | NOAEL ([4]; short-term, duration: 20 days, drinking water, Bone: Rachitic changes): 190 mg/kg-day | NOAEL [10]: 140 mg/kg-day

[Mo].[O-2].[O-2].[O-2].[O-2] [Tetraoxomolybdate(2-)]
LOAEL [11]: 2.6 mg/kg-day | NOAEL [11]: 0.26 mg/kg-day

ClC=C(Cl)Cl [Trichloroethylene]
LOAEL ([12]; chronic, duration: 30 weeks, F, Decreased thymus weight in female B6C3F1 mice): 0.35 mg/kg-day | LOAEL ([12]; developmental, M/F, reduced plaque-forming cell (pfc) response, increased delayed-type hypersensitivity in b6c3f1 mice): 0.37 mg/kg-day | NOEL [13]: 1000 mg/kg-day | LOAEL ([14]; chronic, duration: 1 years, M/F): 0.37 mg/kg-day | LOAEL ([14]; chronic, duration: 30 weeks, F): 0.35 mg/kg-day | LOAEL ([14]; developmental, duration: 364 days, M/F): 0.37 mg/kg-day | LOAEL [11]: 7 mg/kg-day | NOAEL [11]: 0.7 mg/kg-day

Oc1cc(Cl)ccc1Oc1ccc(Cl)cc1Cl [Triclosan]
NOEL ([4]; short-term, duration: 4 weeks, Whole body: Decreased weight): 500 mg/kg-day | LEL ([5]; duration: 3 days): 4.69 mg/kg-day and 7.5 mg/kg-day | LEL ([5]; duration: 20 days): 150 mg/kg-day

[PH]=[Zn].[PH]=[Zn].[Zn] [Zinc phosphide (Zn3P2)]
LOAEL ([3]; subchronic, F, reduced food intake and body weight): 3.48 mg/kg-day | LOAEL ([4]; subchronic, duration: 13 weeks, diet, Whole body: Decreased food intake + Whole body: Decreased weight): 3.48 mg/kg-day

CCCCCC [n-Hexane]
LOAEL ([1]; subchronic, duration: 8 weeks, gavage, M, Wistar, Nervous): 785 mg/kg-day
